According to US20220370380A1, “EXERCISE-INDUCED HEMOLYSIS SUPPRESSANT AND COMPOSITION FOR SUPPRESSING/IMPROVING EXERCISE-INDUCED HEMOLYTIC ANEMIA” (AstaReal Co., Ltd., priority 2019, published 2022):
Read-outs that look alike come from different tables or passages of the source.

Assays:
[1] = literature: Takahashi et al. 2004; cited from earlier work
[2] = cited from earlier work
[3] = tested on: men's medium- and long-distance runners; test: Confirmation test for suppression of hemolysis due to oxidative damage (urinary 8-OHdG and isoprostane production rate); format: in vivo, human
From the text: In order to confirm whether or not hemolysis due to oxidative damage is suppressed in the “astaxanthin group” of Example 1 (whether or not oxidative damage to erythrocytes (red blood cells) is suppressed), the production rate of 8-OHdG and isoprostane contained in the urine of the subjects of the “astaxanthin group” and the “control group” was investigated during the “test period” of Weeks 0 to 8 through the “acclimatization period (Weeks 0 to 4)” and the “observation period (Weeks 4 to 8)” of Example 1. The period of the confirmation test was set to the “test period” of Weeks 0 to 8 through the “acclimatization period (Weeks 0 to 4)” and the “observation period (Weeks 4 to 8)” because there was no causal relationship of whether or not hemolysis occurred due to oxidative damage with whether running training was performed in the highlands or flatlands.
Specifically, this test was performed as follows. Urine was collected from the subjects of the “astaxanthin group” and the “control group” at Week 0 (start date of test food intake), Week 4, and Week 8 (last day of test food intake), and the production rate of 8-OHdG and the production rate of isoprostane were measured. Thereafter, their averages were calculated, and then the transitions of the averages of the production rate of 8-OHdG and the production rate of isoprostane from Week 0 to Week 8 in each of the “astaxanthin group” and the “control group” thus calculated were observed.
The 8-OHdG concentration in the urine collected from the subjects of the “astaxanthin group” and the “control group” was measured using a New 8-OHdG Check ELISA (ELISA kit for 8-OHdG (product code: KOG-2005/E), available from NIKKEN SEIL Co., Ltd.) by an ELISA method. The production rate of 8-OHdG per body weight and time was calculated by the formula shown below.
Production rate of 8-OHdG (ng/kg/hr)={8-OHdG concentration in urine (ng/mL)×volume of urine collected (mL)}/{elapsed time since the last urination (h)×body weight of subject (kg)}
The isoprostane concentration in the urine collected from the subjects of the “astaxanthin group” and the “control group” was measured using a urinary isoprostane measurement ELISA kit (8-iso-PGF2a ELISA kit (product code: ADI-900-010), available from Enzo Life Sciences) by an ELISA method. The production rate of isoprostane per body weight and time was calculated by the formula shown below.
Production rate of isoprostane (ng/kg/hr)={isoprostane concentration in urine (ng/mL)×volume of urine collected (mL)}/{elapsed time since the last urination (h)×body weight of subject (kg)} […]

[4] = tested on: men's medium- and long-distance runners; test: Confirmation test for suppression of exercise-induced hemolysis using astaxanthin; format: in vivo, human; conditions: compared with control group
Procedure: A confirmation test to confirm whether or not exercise-induced hemolysis that causes exercise-induced hemolytic anemia can be suppressed by orally taking a test food containing astaxanthin by a subject was conducted as follows.
Two types of test foods, a “capsules for astaxanthin group” containing a Haematococcus algae-derived pigment and a “capsules for control group” not containing the Haematococcus algae-derived pigment were prepared. Further, twenty-eight men's medium- and long-distance runners aged from 18 to 22 belonging to the athletic club of Tokai University as subjects were divided into two groups. Thirteen subjects were designated as the “astaxanthin group”, and fifteen subjects were designated as the “control group”. […]
Specifically, running training in the highlands was first conducted for 4 weeks, setting the period of running training in the highlands as “acclimatization period (Weeks 0 to 4)”, then blood samples were collected from the subjects of the “astaxanthin group” and the “control group”, to measure the number of erythrocytes (red blood cells), the hemoglobin content (amount of blood pigment; hemoglobin concentration), and the serum haptoglobin concentration. […] This test was conducted by observing the rate of change in the number of erythrocytes, the rate of change in the hemoglobin content (hemoglobin concentration), and the transition of the serum haptoglobin concentration from the start date to the end date of the observation period in each of the “astaxanthin group” and the “control group” thus measured. […]
The blood samples collected from the subjects of the “astaxanthin group” and the “control group” were treated with EDTA-2K to measure the number of erythrocytes using the sheath flow electrical resistance detection method. […] On the other hand, the collected blood samples were transferred to a tube containing EDTA-2Na and centrifuged to separate the plasma fraction, to measure the serum haptoglobin concentration using an ELISA kit for haptoglobin quantification (Quantikine Human Haptoglobin ELISA Kit (product code: DHAPGO), available from R&D Systems, Inc.). […]

[5] = tested on: men's medium- and long-distance runners; test: Confirmation test for antioxidant capacity (serum total antioxidant capacity); format: in vivo, human; conditions: test period Week 0 to Week 8; astaxanthin group versus control group
Procedure: In order to confirm the antioxidant capacity in the “astaxanthin group” of Example 1, the concentrations of water-soluble antioxidants contained in the serum of the subjects of the “astaxanthin group” and the “control group” were measured during the “test period” of Weeks 0 to 8 through the “acclimatization period (Weeks 0 to 4)” and the “observation period (Weeks 4 to 8)” of Example 1. The period of the confirmation test was set to the “test period” of Weeks 0 to 8 through the “acclimatization period (Weeks 0 to 4)” and the “observation period (Weeks 4 to 8)” because there was no causal relationship of the antioxidant capacity with whether running training was performed in the highlands or flatlands.
Specifically, this test was performed as follows. The blood samples were collected from the subjects of the “astaxanthin group” and the “control group” at Week 0 (start date of test food intake), Week 4, and Week 8 (last day of test food intake), to measure the concentrations of water-soluble antioxidants in serum and measure the total antioxidant capacity. Thereafter, the average was calculated, and the transition of the average of the total antioxidant capacity from Week 0 to Week 8 in each of the “astaxanthin group” and the “control group” thus calculated was observed. […]

ordinary people = test: Changes in number of erythrocytes and hemoglobin content of ordinary people (FIG. 3); format: in vivo, human; conditions: between before and after taking the test food

## CC1=C(/C=C/C(C)=C/C=C/C(C)=C/C=C/C=C(C)/C=C/C=C(C)/C=C/C2=C(C)C(=O)C(O)CC2(C)C)C(C)(C)CC(O)C1=O (stereo not drawn) [astaxanthin, 3,3′-dihydroxy-β,β-carotene-4,4′-dione]
[1]
  mutagenicity: no mutagenicity observed
[2]
  antioxidant activity relative to vitamin E: 1000 times
[2]; listed as Astaxanthin
  antioxidant activity relative to vitamin E: about 1,000 times
[2]; relative to β-carotene
  antioxidant activity relative to β-carotene: about 40 times
[3]; Week 0, astaxanthin group compared with control group
  average of measured values of the production rate of isoprostane (urine): low
[3]; Week 4 and Week 8, astaxanthin group versus control group
  average of measured values of the production rate of isoprostane (urine): no difference observed
[3]; after intake compared with before intake (Week 0), within astaxanthin group
  average production rate (urine marker), comparison between before and after taking the test food: increased after intake
[3]; test period Week 0 to Week 8, astaxanthin group versus control group
  average of measured values of the production rate of 8-OHdG (urine): no significant difference
[4]; astaxanthin 12 mg/day oral (free form), observation period Weeks 4 to 8, running training in flatlands
  rate of change in the number of erythrocytes during the observation period: high
[4]; astaxanthin 12 mg/day oral, Week 4
  serum haptoglobin concentration on the start date of the observation period: almost no difference
[4]; astaxanthin 12 mg/day oral, Week 8
  serum haptoglobin concentration on the end date of the observation period: extremely high
[4]; astaxanthin 12 mg/day oral, observation period Weeks 4 to 8, running training in flatlands
  rate of change in the hemoglobin content (hemoglobin concentration) during the observation period: also high
[5]
  average of measured values of the total antioxidant capacity (serum): no significant difference
Ordinary people
  hemoglobin content (hemoglobin concentration): no significant difference
  number of erythrocytes: no significant difference
